Test results taken from patent publication US11612606B2, “8-aminoisoquinoline compounds and uses thereof” (priority 2018, dated 2023).
Like-named read-outs stand apart in the source and are kept apart here.

Assays:
[1] = tested on: phosphorylation of SLP-76 (S376) by HPK-1 in human Jurkat cells; experiment: pSLP76 assay (sandwich ELISA, anti-CD3 stimulated Jurkat cells); format: cell-based; conditions: read-out: pSLP76 IC50
Method: Phospho-SLP76 (S376) is detected by sandwich ELISA using an anti-pSLP76(S376) capture antibody and a biotinylated anti-SLP76 detection antibody.
Incubate Jurkat cells with varying concentrations of test compounds for 30 minutes in a humidified incubator at 37° C. and 5% CO2. Add anti-CD3 DynaBeads at a 4:1 bead:cell ratio. Stimulate cells in a humidified incubator at 37° C. and 5% CO2 for 10 minutes. Add cold lysis buffer and incubate on a shaker at 4° C. for 30 minutes. Transfer cell lysates to a pre-blocked ELISA plate coated with capture antibody. Incubate at room temperature shaking for 2 hours. Wash ELISA plate 5× with wash buffer and add 25 μl of biotinylated detection antibody at a final concentration of 0.5 μg/ml. Incubate at room temperature shaking for 1 hour. Wash ELISA plate 5× with wash buffer and add 25 μl of streptavidin enzyme conjugate at a final dilution of 1:8000. Incubate at room temperature shaking for 20 minutes. Wash ELISA plate 5× with wash buffer and add 25 μl of TMB substrate solution. Incubate at room temperature in the dark shaking for 20 minutes. Add 25 μl of STOP solution and read on SoftMax Pro for absorbance at 450 nm.
Exemplary compounds of Formula (I) were tested in pSLP76 assays.

[2] = Hepatocyte stability assay; format: in vitro ADME; conditions: cryopreserved human hepatocytes (10 donor pool, suspension), scaled hepatic clearance, read-out: HHep Clearance
Method: (§1) Metabolic stability of compounds are assessed using a hepatocyte stability assay. Cryopreserved human hepatocytes from a 10 donor pool are quickly thawed at 37° C., suspended in prewarmed In VitroGRO™ HT Medium, and then centrifuged at 100×g at room temperature for 10 min. The supernatants are discarded, and cells are resuspended in 5 mL Dulbecco's Modified Eagle Medium (DMEM) medium. Cell viability in suspension is counted on a Hepatometer® Vision (Lonza, N.C.), and viable cells are then adjusted to […] in DMEM. Compounds are first diluted to 2 μM with DMEM medium, and then aliquots of 125 μL of drug-containing medium are transferred to 96-well non-coated plates. Incubation is initiated by the addition of 125 μL of hepatocyte suspension to yield a total incubation volume of 250 μL. Final concentration of each compound is 1 μM, and final cell density is 0.5×10^6 cells/mL. Incubations are conducted in a humidified incubator at 37° C. Aliquots of 50 μL incubation medium are taken out at different time intervals (0, 60, 120 and 180 min), and immediately mixed with 100 μL of ice-cold acetonitrile containing 50 nM propranolol (internal standard). Samples are then centrifuged at 10,000×g for 10 min, and 80 μL of supernatant is taken out and diluted with 160 μL of water prior to LC/MS-MS analysis.
(§2) Human hepatocyte stability was assessed for exemplary compounds of Formula (I) according to the above procedures.

[3] = biological target: HPK full length, T165E S171E (Homo sapiens (Human), UniProt Q92918, S171E/T165E); experiment: HPK1-FL HTRF enzymatic assay ("HTRF"); format: biochemical; conditions: ATP 1 mM
HPK full length, T165E S171E, sequence (Q92918 whole entry T165E/S171E, looked up): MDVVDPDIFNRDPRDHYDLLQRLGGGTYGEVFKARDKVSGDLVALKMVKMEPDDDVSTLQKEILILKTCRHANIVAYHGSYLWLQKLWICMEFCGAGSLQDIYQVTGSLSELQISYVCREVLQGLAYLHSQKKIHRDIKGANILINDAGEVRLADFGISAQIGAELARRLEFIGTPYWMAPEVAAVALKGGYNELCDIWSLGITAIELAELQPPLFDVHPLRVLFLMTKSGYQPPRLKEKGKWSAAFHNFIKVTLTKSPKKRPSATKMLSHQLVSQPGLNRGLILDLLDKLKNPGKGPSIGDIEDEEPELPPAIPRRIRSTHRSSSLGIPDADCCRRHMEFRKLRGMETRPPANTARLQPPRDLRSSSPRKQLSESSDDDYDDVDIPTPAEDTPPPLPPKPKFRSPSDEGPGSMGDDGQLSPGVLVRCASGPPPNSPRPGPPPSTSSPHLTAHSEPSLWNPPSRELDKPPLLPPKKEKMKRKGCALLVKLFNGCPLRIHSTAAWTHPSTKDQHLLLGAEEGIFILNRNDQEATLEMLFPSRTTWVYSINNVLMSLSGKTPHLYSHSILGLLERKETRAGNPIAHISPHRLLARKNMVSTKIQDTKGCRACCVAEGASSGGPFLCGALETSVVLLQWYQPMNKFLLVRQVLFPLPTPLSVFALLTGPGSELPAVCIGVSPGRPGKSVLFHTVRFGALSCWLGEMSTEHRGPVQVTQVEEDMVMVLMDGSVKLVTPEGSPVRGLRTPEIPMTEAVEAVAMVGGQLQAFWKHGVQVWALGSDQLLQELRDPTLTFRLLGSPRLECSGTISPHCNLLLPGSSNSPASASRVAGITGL
Method in brief: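 Full-length HPK1 (T165E/S171E) was preincubated 30 min with compound, then reacted 60 min with biotin-SLP-76 and 1 mM ATP. Phospho-SLP-76 was detected by HTRF (Eu-anti-pSLP76 antibody, SA-XL665) after a further 60 min.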

[4] = Pharmacokinetic study in rat; format: in vivo, Sprague Dawley rat; conditions: for bioavailability: male, Sprague Dawley, plasma
Method: Pharmacokinetic Study in Rat: Male Sprague Dawley rats obtained from Lingchang/Vital River Laboratory Animal Technology Co., Ltd., (Shanghai/Beijing, P.R. China) with body weight ranging between 200 g to 300 g were use in the PK studies. Group of 3 rats were given a 1 mg/kg intravenous bolus (IV) dose of the test article in solution formulation, and another group of 3 rats were given a 2 or 5 mg/kg oral (PO) dose of test article as a 0.5% methylcellulose with 0.2% Tween 80 (MCT) suspension or as a solution. Blood samples (250 μL, per time point) were collected serially via the catheter in femoral artery at 0.033, 0.083, 0.25, 0.5, 1, 2, 4, 6, and 8 hours after IV or PO administration from each of the rat. Blood samples were collected into pre-chilled tubes containing Potassium (K2) EDTA and centrifuged at 3,200 g for 10 minutes at 2 to 8° C. within 1 hour of collection to harvest plasma. Plasma samples were stored at −70° C. until LC/MS/MS analysis. Concentration in each plasma sample was determined by a non-validated LC/MS/MS. Data is acquired using multiple reaction monitoring (MRM) with specific transitions monitored for each compound.
Following PO administration, percent bioavailability (% F) was determined for each animal by dividing the dose normalized area under the plasma concentration-time curve, extrapolated to infinity (AUCinf) obtained following each PO dose by the mean dose normalized AUCinf of the animals dosed by IV injection. All PK parameters are presented as mean±standard deviation (SD).
Pharmacokinetic studies were conducted in rat for exemplary compounds of Formula (I).

[5] = tested on: primary human pan T cells; experiment: Human T-cell IL2 induction assay; format: cell-based
Method: Assay Principle: Anti-CD3 and anti-CD28 activates TCR signaling in primary human pan T cells leading to IL-2 promoter induction. Secreted IL-2 in cell culture supernatant is detected by electrochemiluminescence using a capture antibody against IL-2 and an anti-IL-2 antibody labeled with SULFO-tag. Also see www.mesoscale.com for additional electrochemiluminescence technology information.
Assay Procedure: Incubate primary human pan T cells with varying concentrations of test compounds for 30 minutes in a humidified incubator at 37° C. and 5% CO2. Transfer cells to a plate pre-coated with a fixed concentration of anti-human CD3 (determined separately for each donor lot) and add soluble anti-human CD28 (final concentration=1 μg/ml). Stimulate cells in a humidified incubator at 37° C. and 5% CO2 for 4 hours. Transfer 25 μl of supernatant to a MSD single spot plate pre-coated with an anti-human IL-2 antibody. Incubate MSD plate overnight at 4° C. with gentle shaking. Wash MSD plate 4× with wash buffer. Add SULFO-tagged detection antibody at a 1:50 dilution and incubate at room temperature shaking for 2 hours. Wash MSD plate 4× with wash buffer and add 150 μl 2×MSD read buffer. Read on an MSD instrument. Normalize data to stimulated/untreated controls to calculate % activity at each concentration of compound.
Instrumentation: • Biomek FX for liquid handling (Beckman Coulter) • MSD SECTOR S 600 (Meso Scale Discovery)
Exemplary compounds of Formula (I) were tested in the human T-cell IL-2 induction assays.

[6] = Permeability assay in gMDCKI cells; format: in vitro ADME, canine; conditions: dog, MDCK, apical-to-basolateral, 2-hour incubation, read-out: MDCK AB Papp
Method: (§3) Cell permeability of compounds of interest was assessed in the gMDCKI cell line, which is a modified MDCKI (Madin-Darby canine kidney) originally acquired from American Type Culture Collection (Manassa, Va.) and generated at Genentech. […] Test article was tested at 10 μM in the apical-to-basolateral (A-B) and basolateral-to-apical (B-A) directions. Test compound was dissolved in transport buffer consisting of Hank's balanced salt solution and […] (Invitrogen Corporation, Grand Island, N.Y.). Transepithelial electrical resistance (TEER) and lucifer yellow (LY) permeability were used to monitor monolayer integrity at the beginning and the end of the experiments, respectively. Test articles were analyzed by LC-MS/MS.
(§4) The efflux ratio (ER) is calculated as (Papp, B−A/Papp, A−B).
(§5) Cell permeability were assessed for exemplary compounds of Formula (I).

[7] = tested on: Cryopreserved human hepatocytes; experiment: Hepatocyte stability assay; format: in vitro ADME; conditions: 1 μM, scaled hepatic clearance
Method: as §1, §2

gMDCKI cell line = experiment: Permeability assay in gMDCKI cells; format: in vitro ADME, canine; conditions: apical-to-basolateral, 10 μM, 2-hour incubation
Method: as §3, §4, §5

[8] = Homo sapiens, Jurkat cells, anti-CD3 stimulation
[9] = PO 2 mg/kg, 10% DMSO/60% PEG400/30% Water, Solution
[10] = PO 5 mg/kg, 10% DMSO/60% PEG400/30% Water, Solution

| SMILES | IC50 [1, 8] | CLhep predicted at 1 μM [2] | Ki ([3]; read-out: HPK1 Ki) | % IL-2 increase relative to untreated cells ([5]; assayed concentration 2.778 μM) | Papp at 2 h, 10 μM [6] | also measured |
| --- | --- | --- | --- | --- | --- | --- |
| Cc1c(-c2cc3cc(NC(=O)O[C@H]4COC[C@@H]4C)ncc3c(N)c2F)cnc2c1NCCO2 (single isomer, unassigned) [Compound 441b] | 36 nM | 6.9 mL/min/kg | < 0.013 nM | 1158% | 15 ×10⁻⁶ cm/s | bioavailability ([4]; PO 2 mg/kg, 10/90 DMSO/MCT, Solution): 30% |
| Cc1c(-c2cc3cc(NC(=O)O[C@@H]4COC[C@@H]4F)ncc3c(N)c2F)cnc2c1NCCO2 (single isomer, unassigned) [Compound 477d] | 66 nM | 5.7 mL/min/kg |  |  | 16 ×10⁻⁶ cm/s | Ki ([3]; HPK1 Ki): 0.02 nM; bioavailability [4, 9]: 43%; % IL-2 increase relative to untreated cells ([5]; assayed concentration 8.33 μM): 1745% |
| Cc1c(-c2cc3cc(NC(=O)O[C@@H]4CCC[C@H]4C#N)ncc3c(N)c2F)cnc2c1NCCO2 (single isomer, unassigned) [Compound 482a] | 38 nM | 11 mL/min/kg | < 0.013 nM | 737% | 15 ×10⁻⁶ cm/s | bioavailability ([4]; PO 5 mg/kg, MCT, pH = 2.5, Suspension): 41% |
| Cc1c(-c2cc3cc(NC(=O)O[C@H]4CCO[C@H]4C)ncc3c(N)c2F)cnc2c1NCCO2 (single isomer, unassigned) [Compound 510c] |  | 8.7 mL/min/kg | < 0.013 nM | 700% | 20 ×10⁻⁶ cm/s | IC50 ([1]; Homo sapiens, Jurkat): 62 nM; bioavailability ([4]; PO 2 mg/kg, MCT, Suspension): 28% |
| CO[C@H]1COC[C@@H]1OC(=O)Nc1cc2cc(-c3cnc4c(c3C)NCCO4)c(F)c(N)c2cn1 (single isomer, unassigned) [Compound 546a] | 62 nM | 6.5 mL/min/kg | < 0.013 nM |  | 10 ×10⁻⁶ cm/s | bioavailability ([4]; PO 5 mg/kg, 10% DMSO/35% PEG400/55% Water, Solution): 22%; % IL-2 increase relative to untreated cells ([5]; assayed concentration 8.33 μM): 914% |
| Cc1c(-c2cc3cc(NC(=O)O[C@H]4C[C@H](C#N)C4)ncc3c(N)c2F)cnc2c1NCCO2 [Compound 484b, (1r,3r)-(3-Cyanocyclobutyl) N-[8-amino-7-fluoro-6-(8-methyl-2,3-dihydro-1H-pyrido[2,3-b][1,4]oxazin-7-yl)-3-isoquinolyl]carbamate] | 26 nM | 7.9 mL/min/kg | 0.015 nM | 1782% | 19 ×10⁻⁶ cm/s | bioavailability [4, 10]: 16% |
| CNc1cncc(-c2cc3cc(NC(=O)OC4CC(C)(O)C4)ncc3c(N)c2F)c1C (centres unmarked) [Compound 527, 3-Hydroxy-3-methylcyclobutyl(8-amino-7-fluoro-6-(4-methyl-5-(methylamino)pyridin-3-yl)isoquinolin-3-yl)carbamate] |  | 11 mL/min/kg |  | 738% | 13 ×10⁻⁶ cm/s | IC50 ([1]; Homo sapiens, Jurkat): 64 nM; bioavailability ([4]; PO 2 mg/kg, MCT, Suspension): 12% |
| Cc1c(-c2cc3cc(NC(=O)O[C@H]4C[C@H](C(C)(C)O)C4)ncc3c(N)c2F)cnc2c1NCCO2 [Compound 574a, (1r,3r)-3-(2-Hydroxypropan-2-yl)cyclobutyl (8-amino-7-fluoro-6-(8-methyl-2,3-dihydro-1H-pyrido[2,3-b][1,4]oxazin-7-yl)isoquinolin-3-yl)carbamate] |  |  | 0.02 nM |  |  | IC50 ([1]; Jurkat cells, anti-CD3 stimulation): 32 nM; HHep Clearance [7]: 8.3 mL/min/kg; % F [4, 9]: 16%; % IL-2 increase relative to untreated cells ([5]; assayed concentration 1.196 μM): 1634%; MDCK AB Papp (gMDCKI cell line): 12 ×10⁻⁶ cm/s |
| Cc1c(-c2cc3cc(NC(=O)N4CC(C)C4)ncc3c(N)c2F)cnc2c1NCCO2 [Compound 751, N-(8-Amino-7-fluoro-6-(8-methyl-2,3-dihydro-1H-pyrido[2,3-b][1,4]oxazin-7-yl)isoquinolin-3-yl)-3-methylazetidine-1-carboxamide] | 41 nM | < 6.2 mL/min/kg | 0.044 nM | 1363% | 11 ×10⁻⁶ cm/s | bioavailability [4, 9]: 9.4% |
| Cc1c(-c2cc3cc(NC(=O)N4CC(C)(F)C4)ncc3c(N)c2F)cnc2c1NCCO2 [Compound 755, N-(8-Amino-7-fluoro-6-(8-methyl-2,3-dihydro-1H-pyrido[2,3-b][1,4]oxazin-7-yl)isoquinolin-3-yl)-3-fluoro-3-methylazetidine-1-carboxamide] | 46 nM | 6.8 mL/min/kg | 0.09 nM | 1061% | 10 ×10⁻⁶ cm/s | bioavailability [4, 10]: 4% |
